# Read-outs that look alike come from different tables or passages of the source.
# How the values were obtained:
# [1] = tested on: rhinovirus (strain: rhinovirus 2); test: Inhibitory activity against rhinovirus in HeLa cells (SRB); assay type: cell-based; conditions: for inhibition at 10 µg/mL: Enterovirus, HeLa, 48 h, read-out: Inhibitory activity (%) (Mean ± S.D.)
# Protocol: In order to evaluate the inhibitory activity of quercetin-7-rhamnoside against rhino virus, the following in vitro test was performed using HeLa, one of human cervical cancer cell lines, cells. Inhibitory activity of quercetin-7-rhamnoside against viral proliferation was measured by the method proposed by Kwon Dur-Han, et al. (Korean Patent Publication No. 2004-101863). […] HeLa cells were cultured on a 96-well microplate until the bottom of each well was completely covered with cells. Remaining culture medium was removed and each well was washed twice with a phosphate buffer. A rhino virus solution adjusted to a concentration of TCID 50 was added to each well. […] After 48 hours, the HeLa cells were observed under a microscope. After adding 100 μL of 70% acetone, each well was kept at −20° C. for 1 hour. After drying in a desiccator, 100 μL of 0.4% (w/v) SRB (sulforhodamine B) solution dissolved in 1% (v/v) acetic acid was added. After 30 minutes of staining, the SRB solution not bound to the cells was washed off with 1% (v/v) acetic acid for 4 times. After drying, 100 μL of 10 mM Tris solution (pH 10.5) was added to each well to dissolve the stained substance at the bottom of the well. Light absorbance was measured at 562 nm to evaluate the antiviral activity. As control group, viability of cells treated with DMSO only was compared with those treated with both DMSO and virus. Each test was repeated for 3 times.
# [2] = tested on: porcine epidemic diarrhea virus (PEDV); test: Antiviral activity against PEDV in Vero cells (SRB staining); conditions: for IC50: Porcine epidemic diarrhea virus, Vero, 48 h, read-out: IC50 (concentration required for 50% inhibition of viruses); for IC50 (concentration required for 50% inhibition of viruses) / Inhibitory activity (TI = CC50/IC50): PEDV in Vero cells, 48 hours; for IC50 (concentration required for 50% inhibition of viruses): maximum dosage 100 μg/mL; for Inhibitory activity (TI = CC50/IC50): 0.1-100 μg/mL
# [3] = tested on: porcine transmissible gastroenteritis virus (TGEV); test: Anti-coronavirus inhibitory activity against TGEV in ST cells; assay type: cell-based; conditions: for inhibitory activity against TGEV (in words): 0.1-100 μg/mL, 48 hours
# Protocol: (§1) Antiviral activity of quercetin-7-rhamnoside against porcine transmissible gastroenteritis virus (TGEV) and porcine respiratory coronavirus (PRCV), another kind of coronaviruses, was evaluated. ST cells were cultured on a 96-well microplate until the bottom of each well was completely covered with cells. Remaining culture medium was completely removed and each well was washed twice with a phosphate buffer. TGEV or PRCV solution adjusted to a concentration of TCID50 was added to each well. Each of quercetin-7-rhamnoside, conventional antiviral agents purchased from Sigma-ribavirin, lamivudine, azidovudine, acycloguanine and glycyrrhizhin-dissolved in dimethyl sulfoxide was added to each well to a final concentration of 0.1-100 μg/mL. […] Similarly to the aforesaid evaluation of antiviral inhibitory activity against PEDV, c ells treated with DMSO only and those treated with both DMSO and TGEV or both DMSO and PRCV were used as control groups.
# [4] = tested on: porcine respiratory coronavirus (PRCV); test: Anti-coronavirus inhibitory activity against PRCV in ST cells; assay type: cell-based; conditions: for inhibitory activity against PRCV (in words): 0.1-100 μg/mL, 48 hours
# Protocol: as §1
# [5] = tested on: influenza type A (H1N1/WS/33) virus; test: Antiviral activity against influenza type A virus in MDCK cells (SRB); assay type: cell-based, influenza virus type A (H1N1; WS/33 strain); conditions: Influenza A virus; 10 μg/mL, influenza A H1N1/WS/33 in MDCK cells, 48 hours, repeated 3 times; read-out: Inhibitory activity (%) (Mean ± S.D.)
# Protocol: In order to evaluate the inhibitory activity of quercetin-7-rhamnoside against influenza virus, the following in vitro test was performed using MDCK cells derived from dog kidney.
# Inhibitory activity of quercetin-7-rhamnoside against viral proliferation was measured by the method proposed by Kwon Dur-Han, et al. (Korean Patent Application No. 2004-101863). Inhibitory activity against influenza virus type A (H1N1; WS/33 strain) was measured. MDCK cells were cultured on a 96-well microplate until the bottom of each well was completely covered with cells. Remaining culture medium was completely removed and each well was washed twice with a phosphate buffer. Each of quercetin-7-rhamnoside; conventional antiviral agents purchased from Sigma-ribavirin and amantadine; oseltamivir (trade name: Tamiflu) purchased from Roche; and zanamivir (trade name: Relenza) purchased from Glaxo Wellcome; dissolved in dimethyl sulfoxide was added to each well to a final concentration of 10 μg/mL. […] After adding 100 μL of 70% acetone, each well was kept at −20° C. for 1 hour. After drying in a desiccator, 100 μL of 0.4% (w/v) SRB (sulforhodamine B) solution dissolved in 1% (v/v) acetic acid was added. After 30 minutes' staining, the SRB staining solution not bound to the cells was washed off with 1% (v/v) acetic acid for 4 times. After drying, 100 μL of 10 mM Tris solution (pH 10.5) was added to each well to dissolve the stained substance at the bottom of the well. Light absorbance was measured at 562 nm to evaluate the antiviral activity. As control group, viability of cells treated with DMSO only was compared with those treated with both DMSO and virus. Each test was repeated 3 times.
# [6] = tested on: influenza type B (B/Lee/40) virus; test: Inhibitory activity against influenza type B virus in MDCK cells (SRB); assay type: cell-based; conditions: Influenza B virus, read-out: Inhibitory activity (%) (Mean ± S.D.)
# [7] = tested on: rotavirus (strain: OSU); test: Inhibitory activity against rotavirus in MA104 cells (SRB); assay type: cell-based; conditions: read-out: Inhibitory activity (%) (Mean ± S.D.)
# Protocol: In order to evaluate the inhibitory activity of quercetin-7-rhamnoside against rota virus, the following in vitro test was performed using MA014 cells derived from […] kidney. Inhibitory activity of quercetin-7-rhamnoside against viral proliferation was measured by the method proposed by Kwon Dur-Han, et al. (Korean Patent Publication No. 2004-101863). Inhibitory activity against rotavirus (strain: OSU) was measured. MA104 cells were cultured on a 96-well microplate until the bottom of each well was completely covered with cells. Remaining culture medium was removed and each well was washed twice with a phosphate buffer. A rota virus solution adjusted to a concentration of TCID 50 was added to each well. […] After 48 hours, the MA104 cells were observed under a microscope. After adding 100 μL of 70% acetone, each well was kept at −20° C. for 1 hour. After drying in a desiccator, 100 μL of 0.4% (w/v) SRB (sulforhodamine B) solution dissolved in 1% (v/v) acetic acid was added. After 30 minutes of staining, the SRB solution not bound to the cells was washed off with 1% (v/v) acetic acid for 4 times. After drying, 100 μL of 10 mM Tris solution (pH 10.5) was added to each well to dissolve the stained substance at the bottom of the well. Light absorbance was measured at 562 nm to evaluate the antiviral activity. As control group, viability of cells treated with DMSO only was compared with those treated with both DMSO and virus. Each test was repeated for 2 times.
# [8] = in vitro; conditions: African green monkey
# [9] = in vitro; conditions: pig
# [10] = 10 μg/mL, rhinovirus 2 in HeLa cells, 48 hours, repeated 3 times
# [11] = Alphacoronavirus 1, 48 hours, read-out: IC50
# [12] = 10 μg/mL, influenza B/Lee/40 in MDCK cells, 48 hours, repeated 3 times
# [13] = 10 μg/mL, rotavirus OSU in MA104 cells, 48 hours, repeated 2 times
molecule,measurement,setting,value
"O=c1cc(-c2ccc(O)c(O)c2)oc2cc(O)cc(O)c12 [Luteolin, luteolin]",inhibition at 10 µg/mL,[1]; [10],21.8%
same,IC50,[2],0.21 µg/mL
"O=c1c(-c2ccc(O)cc2)coc2cc(O[C@@H]3O[C@H](CO)[C@@H](O)[C@H](O)[C@H]3O)cc(O)c12 [Genistin, genistin]",inhibition at 10 µg/mL,[1]; [10],13%
same,IC50 (concentration required for 50% inhibition of viruses),[2],IC50 not attained even at the maximum dosage.
same,IC50,[2],> 100 µg/mL
"NC(=O)c1ncn([C@@H]2O[C@H](CO)[C@@H](O)[C@H]2O)n1 [Ribavirin, ribavirin]",IC50,[3]; [11],55.1 µg/mL
same,IC50,[4]; [11],61.6 µg/mL
same,inhibition at 10 µg/mL,[5],74.2%
same,inhibition at 10 µg/mL,[6]; [12],95.8%
same,inhibition at 10 µg/mL,[7]; [13],82.3%
same,Inhibitory activity (%) (Mean ± S.D.),[1]; [10],42.32 ± 4.38%
same,inhibition at 10 µg/mL,[1]; [10],42.3%
same,CC50 at 48 h,[8],> 100 µg/mL
same,CC50 at 48 h,[9],> 100 µg/mL
same,IC50,[2],4.1 µg/mL
"O=c1cc(-c2ccc(O)cc2)oc2cc(O)cc(O)c12 [Apigenin, apigenin]",inhibition at 10 µg/mL,[1]; [10],9.24%
same,CC50 at 48 h,[8],50 µg/mL
same,IC50,[2],0.1 µg/mL
"CCOC(=O)C1=C[C@@H](OC(CC)CC)[C@H](NC(C)=O)[C@@H](N)C1 [Tamiflu, oseltamivir]",inhibition at 10 µg/mL,[5],-9.78%
same,inhibition at 10 µg/mL,"[6]; MDCK, 48 h",-1.43%
same,IC50 (concentration required for 50% inhibition of viruses),[2],IC50 not attained even at the maximum dosage
"Nc1nc2c(ncn2COCCO)c(=O)[nH]1 [Acycloguanine, acycloguanine]",inhibitory activity against TGEV (in words),[3],no inhibitory activity
same,inhibitory activity against PRCV (in words),[4],no inhibitory activity
same,inhibition at 10 µg/mL,[7]; [13],0.78%
same,IC50 (concentration required for 50% inhibition of viruses),[2],IC50 not attained even at the maximum dosage
same,IC50,[2],> 100 µg/mL
"CC1(C)[C@@H](O[C@H]2O[C@H](C(=O)O)[C@@H](O)[C@H](O)[C@H]2O[C@@H]2O[C@H](C(=O)O)[C@@H](O)[C@H](O)[C@H]2O)CC[C@]2(C)[C@H]3C(=O)C=C4[C@@H]5C[C@@](C)(C(=O)O)CC[C@]5(C)CC[C@@]4(C)[C@]3(C)CC[C@@H]12 [Glycyrrhizin, glycyrrhizin]",inhibitory activity against TGEV (in words),[3],no inhibitory activity
same,inhibitory activity against PRCV (in words),[4],no inhibitory activity
same,inhibition at 10 µg/mL,"[7]; Rotavirus, MA104, 48 h",0.49%
"O=c1c(O)c(-c2ccc(O)c(O)c2)oc2cc(O)cc(O)c12 [Quercetin, quercetin]",inhibition at 10 µg/mL,[1]; [10],9.87%
same,CC50 at 48 h,[8],365 µg/mL
same,IC50,[2],10.7 µg/mL
catechin,Inhibitory activity (%) (Mean ± S.D.),[1]; [10],11.21%
same,Inhibitory activity (TI = CC50/IC50),[2],> 9.0
same,Inhibitory activity (TI = CC50/IC50),[2]; listed as catechin,9.0
same,IC50 (concentration required for 50% inhibition of viruses),[2],11.1 µg/mL
"NC12CC3CC(CC(C3)C1)C2 [Amantadine, amantadine]",inhibition at 10 µg/mL,[5],14.6%
same,inhibition at 10 µg/mL,"[6]; MDCK, 48 h",-1.85%
"COc1ccc([C@@H]2CC(=O)c3c(O)cc(O[C@@H]4O[C@H](CO[C@@H]5O[C@@H](C)[C@H](O)[C@@H](O)[C@H]5O)[C@@H](O)[C@H](O)[C@H]4O)cc3O2)cc1O [Hesperidin, hesperidin]",Inhibitory activity (%) (Mean ± S.D.),[1]; [10],3.12%
same,IC50 (concentration required for 50% inhibition of viruses),[2],IC50 not attained even at the maximum dosage.
"Nc1ccn([C@@H]2CS[C@H](CO)O2)c(=O)n1 [Lamivudine, lamivudine]",inhibitory activity against TGEV (in words),[3],no inhibitory activity
same,inhibitory activity against PRCV (in words),[4],no inhibitory activity
same,inhibition at 10 µg/mL,[7]; [13],0.02%
same,IC50,[2],> 100 µg/mL
"C[C@@H]1O[C@@H](Oc2c(-c3ccc(O)c(O)c3)oc3cc(O)cc(O)c3c2=O)[C@H](O)[C@H](O)[C@H]1O [Quercitrin, quercitrin]",inhibition at 10 µg/mL,[1],13.4%
same,IC50,[2],> 100 µg/mL
"C[C@@H]1O[C@@H](OC[C@H]2O[C@@H](Oc3c(-c4ccc(O)c(O)c4)oc4cc(O)cc(O)c4c3=O)[C@H](O)[C@@H](O)[C@@H]2O)[C@H](O)[C@H](O)[C@H]1O [Rutin, rutin]",inhibition at 10 µg/mL,[1]; [10],25.7%
same,IC50,[2],> 100 µg/mL
"CC(=O)N[C@H]1[C@H]([C@H](O)[C@H](O)CO)OC(C(=O)O)=C[C@@H]1N=C(N)N [Relenza, zanamivir]",inhibition at 10 µg/mL,[5],52.7%
same,inhibition at 10 µg/mL,[6]; [12],3.4%
same,inhibition at 10 µg/mL,[7]; [13],0.5%
same,IC50 (concentration required for 50% inhibition of viruses),[2],IC50 not attained even at the maximum dosage

# Reference: patent publication US7998937B2, “Flavonoid compound having an antiviral activity” (Korea Research Institute of Bioscience and Biotechnology, priority 2005, dated 2011)
